In patent US11191878B2, “Kits for local delivery of water soluble agents and methods of use” (priority 2017, dated 2021):

Key:
myofibroblast formation = conditions: animal studies of capsular contracture with breast implants; cited from earlier work
fibrinolysis = assay: tranexamic acid concentrations effective against fibrinolysis; conditions: relative to doses used in the non-GLP acute porcine study
[1] = given preoperatively

| Structure (SMILES) | myofibroblast formation (myofibroblast formation) | dose effective in reversing fibrinolysis (fibrinolysis) | time to reach plasma concentrations [1] [min] |
| --- | --- | --- | --- |
| O=S(=O)([O-])CCS.[Na+] [MESNA, sodium 2-mercaptoethane sulfonate] | diminish myofibroblast formation | – | – |
| NC[C@H]1CC[C@H](C(=O)O)CC1 [tranexamic acid] | – | one tenth of the doses used in the non-GLP acute porcine study | 5 to 15 |
